biological target: hGYS1 enzyme (recombinant hGYS1/GN1 protein) (Homo sapiens (Human), UniProt P13807); test: GYS1 coupled enzyme assay (PK/LDH); format: biochemical; settings: hGYS1/GN1 50 nM, UDP-Glucose 0.8 mM, G6P 1 mM; geometric mean of at least 2 runs
Text: The GYS1 coupled enzyme assay is a kinetic biochemical assay that indirectly quantifies the rate of glycogen synthesis by coupling the conversion of GYS1 substrate UDP-glucose into UDP with downstream enzymatic reactions. UDP is released from UDP-glucose as glucose monomers are linked into the growing glycogen strand by GYS1. The coupled assay then proceeds with pyruvate kinase utilizing UDP and phospho(enol)pyruvate (PEP) to form pyruvate. Lactate dehydrogenase then converts pyruvate and NADH into lactate and NAD+. Oxidation of NADH to NAD+ can be measured continuously with a plate reader by quantifying the decrease in NADH absorbance at 340 nm over time.
Compounds that inhibit the hGYS1 enzyme and, subsequently, the downstream conversion of NADH to NAD+, were tested using assay ready plates (black, clear bottom 384 well plates) in a final DMSO reaction volume of 2.5% DMSO. The Assay Buffer contained 50 mM Tris pH 7.5, 2 mM MgCl2, and 100 mM KCl. Fresh stocks of BSA at a final concentration of 0.02% and TCEP at 1 mM were added before splitting buffer into hGYS1 buffer and substrate buffer. To the hGYS1 buffer, rabbit liver glycogen was added at a final concentration of 0.2% glycogen. Glucose-6-Phosphate was added at 1 mM, recombinant hGYS1/GN1 protein was added at 50 nM to the substrate buffer, phosphoenolpyruvate (PEP) was added at 2 mM, UDP-Glucose was added at 0.8 mM, NADH) was added at 0.6 mM, and Pyruvate Kinase/Lactate Dehydrogenase was added at 20 units/mL. The reaction was initiated by mixing hGYS1 buffer and substrate buffer at a 1:1 ratio. Both buffers were plated using a liquid dispensing device with hGYS1 buffer plated first followed by the substrate buffer. Plates were spun briefly to eliminate air bubbles and are immediately read in continuous mode at an absorbance of 340 nm, for 10 time points in one-minute increments, for a total of 10 minutes. The slope from these 10 time points was normalized to the positive and negative control wells. The duplicate % inhibition values are then averaged and fit to a Hill equation for dose response according to the Levenberg-Marquardt algorithm with the Hill equation maximum set to 100 and the minimum set to 0.
Unless otherwise specified, IC50 values are reported as the geometric mean of at least 2 assay runs on separate days. Each run represents the average of a technical replicate, where each compound was assayed twice in the same plate. […] A superscript “#” symbol in Table 2 indicates results from a single assay run.

Sequence of hGYS1 enzyme (recombinant hGYS1/GN1 protein) (P13807 whole entry): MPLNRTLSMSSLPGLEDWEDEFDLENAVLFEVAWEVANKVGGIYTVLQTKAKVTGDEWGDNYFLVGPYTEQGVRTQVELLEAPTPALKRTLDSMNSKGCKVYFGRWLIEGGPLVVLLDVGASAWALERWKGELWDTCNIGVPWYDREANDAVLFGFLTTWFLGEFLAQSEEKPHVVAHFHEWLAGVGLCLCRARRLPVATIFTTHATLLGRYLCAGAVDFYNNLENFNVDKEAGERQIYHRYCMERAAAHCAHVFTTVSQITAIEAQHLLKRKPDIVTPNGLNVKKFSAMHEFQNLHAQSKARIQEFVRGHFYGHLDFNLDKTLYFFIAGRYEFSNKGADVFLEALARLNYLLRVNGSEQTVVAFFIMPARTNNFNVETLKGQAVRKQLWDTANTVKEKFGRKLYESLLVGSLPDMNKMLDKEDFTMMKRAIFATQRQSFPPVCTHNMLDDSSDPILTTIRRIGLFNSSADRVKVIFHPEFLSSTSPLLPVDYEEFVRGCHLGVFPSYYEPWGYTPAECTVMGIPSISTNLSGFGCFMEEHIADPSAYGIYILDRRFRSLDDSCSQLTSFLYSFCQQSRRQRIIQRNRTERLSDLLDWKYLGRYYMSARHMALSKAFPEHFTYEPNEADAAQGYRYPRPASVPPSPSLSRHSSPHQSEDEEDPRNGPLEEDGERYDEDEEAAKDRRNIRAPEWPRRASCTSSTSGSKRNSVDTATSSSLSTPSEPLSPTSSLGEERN
Sequence of hGYS1 enzyme (recombinant hGYS1/GN1 protein) (P46976 whole entry partner): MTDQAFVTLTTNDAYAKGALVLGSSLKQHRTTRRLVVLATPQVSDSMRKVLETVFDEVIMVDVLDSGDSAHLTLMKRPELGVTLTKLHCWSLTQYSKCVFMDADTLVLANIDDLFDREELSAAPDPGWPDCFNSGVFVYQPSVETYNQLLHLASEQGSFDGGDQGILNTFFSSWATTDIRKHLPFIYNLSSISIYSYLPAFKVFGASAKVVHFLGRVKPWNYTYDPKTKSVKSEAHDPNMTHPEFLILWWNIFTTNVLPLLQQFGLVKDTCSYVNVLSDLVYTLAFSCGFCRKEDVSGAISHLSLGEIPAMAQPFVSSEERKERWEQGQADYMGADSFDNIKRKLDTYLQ

Structure (SMILES)	IC50
CC(=O)N1CCCC(C)(C(=O)N2C[C@H](F)C[C@H]2C(=O)N[C@@H](c2ccccc2)c2ccc(C(C)C)cc2)C1 (stereo partly drawn) [Compound 168, (2S,4R)-1-(1-acetyl-3-methylpiperidine-3-carbonyl)-4-fluoro-N-[(S)-phenyl[4-(propan-2-yl)phenyl]methyl]pyrrolidine-2-carboxamide]	0.439 µM
CC(=O)N1CCN(CC(=O)N2C[C@H](F)C[C@H]2C(=O)N[C@@H](c2ccccc2)c2ccc(C(C)C)cc2)CC1 [Compound 235, (2S,4R)-1-[2-(4-acetylpiperazin-1-yl)acetyl]-4-fluoro-N-[(S)-phenyl[4-(propan-2-yl)phenyl]methyl]pyrrolidine-2-carboxamide]	0.342 µM
CC(C)c1ccc([C@@H](NC(=O)[C@@H]2C[C@@H](F)CN2C(=O)C(C)(C)O)c2ccccc2)cc1F [Compound 327, (2S,4R)-4-fluoro-N-[(S)-[3-fluoro-4-(propan-2-yl)phenyl](phenyl)methyl]-1-(2-hydroxy-2-methylpropanoyl)pyrrolidine-2-carboxamide]	0.121 µM
CO[C@H](C)[C@@H](C(=O)N1C[C@H](F)C[C@H]1C(=O)N[C@@H](c1ccccc1)c1ccc(C(C)C)cc1)N(C)C(C)=O [Compound 5, (2S,4R)-4-fluoro-1-[(2S,3R)-3-methoxy-2-(N-methylacetamido)butanoyl]-N-[(S)-phenyl[4-(propan-2-yl)phenyl]methyl]pyrrolidine-2-carboxamide]	0.353 µM
CC(C)c1ccc([C@@H](NC(=O)[C@@H]2C[C@@H](F)CN2C(=O)c2ccc3c(c2)NC(=O)CC3)c2ccccc2)cc1 [Compound 97, (2S,4R)-4-fluoro-1-(2-oxo-1,2,3,4-tetrahydroquinoline-7-carbonyl)-N-[(S)-phenyl[4-(propan-2-yl)phenyl]methyl]pyrrolidine-2-carboxamide]	0.712 µM
CC(=O)N1CC(F)(C(=O)N2C[C@H](F)C[C@H]2C(=O)N[C@@H](c2ccccc2)c2ccc(C(C)C)cc2)C1 [Compound 143, (2S,4R)-1-(1-acetyl-3-fluoroazetidine-3-carbonyl)-4-fluoro-N-[(S)-phenyl[4-(propan-2-yl)phenyl]methyl]pyrrolidine-2-carboxamide]	0.323 µM
CC(=O)N1CC2(CC(C(=O)N3C[C@H](F)C[C@H]3C(=O)N[C@@H](c3ccccc3)c3ccc(C(C)C)cc3)CO2)C1 (stereo partly drawn) [Compound 164, (2S,4R)-1-{2-acetyl-5-oxa-2-azaspiro[3.4]octane-7-carbonyl}-4-fluoro-N-[(S)-phenyl[4-(propan-2-yl)phenyl]methyl]pyrrolidine-2-carboxamide]	0.467 µM
CC(=O)N1CCC2(CC2C(=O)N2C[C@H](F)C[C@H]2C(=O)N[C@@H](c2ccccc2)c2ccc(C(C)C)cc2)C1 (stereo partly drawn) [Compound 156, (2S,4R)-1-{5-acetyl-5-azaspiro[2.4]heptane-1-carbonyl}-4-fluoro-N-[(S)-phenyl[4-(propan-2-yl)phenyl]methyl]pyrrolidine-2-carboxamide]	0.304 µM
CC(=O)N1C[C@H](F)C[C@H]1C(=O)N[C@@H](c1ccc(C(C)C)cc1)c1ccn[nH]1 [Compound 614, (2S,4R)-1-acetyl-4-fluoro-N-[(S)-[4-(propan-2-yl)phenyl](1H-pyrazol-5-yl)methyl]pyrrolidine-2-carboxamide]	1.15 µM
CC(C)c1ccc(C(NC(=O)[C@@H]2C[C@@H](F)CN2C(=O)Cc2cnn[nH]2)c2ccc(F)cn2)cc1F (single isomer, unassigned) [Compound 616, (2S,4R)-4-fluoro-N-[(R) or (S)-[3-fluoro-4-(propan-2-yl)phenyl](5-fluoropyridin-2-yl)methyl]-1-[2-(1H-1,2,3-triazol-5-yl)acetyl]pyrrolidine-2-carboxamide]	1.32 µM
CC(Cn1cccn1)C(=O)N1C[C@H](F)C[C@H]1C(=O)N[C@@H](c1ccccc1)c1ccc(C(C)C)cc1 (stereo partly drawn) [Compound 80, (2S,4R)-4-fluoro-1-[2-methyl-3-(1H-pyrazol-1-yl)propanoyl]-N-[(S)-phenyl[4-(propan-2-yl)phenyl]methyl]pyrrolidine-2-carboxamide]	0.318 µM
CC(C)c1ccc([C@@H](NC(=O)[C@@H]2C[C@@H](F)CN2C(=O)Cc2cc[nH]n2)c2ccccc2)cc1 [Compound 19, (2S,4R)-4-fluoro-N-[(S)-phenyl[4-(propan-2-yl)phenyl]methyl]-1-[2-(1H-pyrazol-5-yl)acetyl]pyrrolidine-2-carboxamide]	0.047 µM
CC(=O)N1[C@H](C(=O)N[C@@H](c2ccccc2)c2ccc(C3CC3)c(F)c2)C[C@@H]2C[C@@H]21 [Compound 420, (1S,3S,5S)-2-acetyl-N-[(S)-(4-cyclopropyl-3-fluorophenyl)(phenyl)methyl]-2-azabicyclo[3.1.0] hexane-3-carboxamide]	3.56 µM

Results, then the compound that gave them:

IC50	Structure (SMILES)
0.051 µM	CC(=O)N1C[C@H](F)C[C@H]1C(=O)NC(c1cccc(-n2cccn2)c1)c1ccc(C(C)C)c(F)n1 (single isomer, unassigned) [Compound 699, (2S,4R)-1-acetyl-4-fluoro-N-[(S) or (R)-[6-fluoro-5-(propan-2-yl)pyridin-2-yl][3-(1H-pyrazol-1-yl)phenyl]methyl] pyrrolidine-2-carboxamide]
0.105 µM	CC(C)c1ccc([C@@H](NC(=O)[C@@H]2C[C@@H](F)CN2C(=O)Cn2nncc2N2CCC2)c2ccccc2)nc1 [Compound 715, (2S,4R)-1-{2-[5-(azetidin-1-yl)-1H-1,2,3-triazol-1-yl]acetyl}-4-fluoro-N-[(S)-phenyl[5-(propan-2-yl)pyridin-2-yl]methyl]pyrrolidine-2-carboxamide]
0.155 µM	O=C(N[C@@H](c1ccccc1)c1ccc(C2CC2)c(F)n1)[C@@H]1[C@H](O)[C@@H](F)CN1C(=O)Cn1nnnc1C(F)F [Compound 764, (2S,3S,4S)-N-[(S)-(5-cyclopropyl-6-fluoropyridin-2-yl)(phenyl)methyl]-1-{2-[5-(difluoromethyl)-1H-1,2,3,4-tetrazol-1-yl]acetyl}-4-fluoro-3-hydroxypyrrolidine-2-carboxamide]
0.151 µM	CC(=O)N1C[C@H](F)C[C@H]1C(=O)NC(c1cccc(-c2ccno2)c1)c1ccc(C(C)C)c(F)n1 (single isomer, unassigned) [Compound 698, (2S,4R)-1-acetyl-4-fluoro-N-[(S) or (R)-[6-fluoro-5-(propan-2-yl)pyridin-2-yl][3-(1,2-oxazol-5-yl)phenyl]methyl] pyrrolidine-2-carboxamide]
1.72 µM	CC(C)COc1cc(C(=O)N2C[C@H](F)C[C@H]2C(=O)N[C@@H](c2ccccc2)c2ccc(C(C)C)cc2)ccn1 [Compound 705, (2S,4R)-4-fluoro-1-[2-(2-methylpropoxy)pyridine-4-carbonyl]-N-[(S)-phenyl[4-(propan-2-yl)phenyl]methyl]pyrrol-idine-2-carboxamide]
2.95 µM	CC(=O)N1CCC[C@H]1C(=O)NC(c1ccc(C(C)C)cn1)c1ccccc1C (single isomer, unassigned) [Compound 641, (2S)-1-acetyl-N-[(S) or (R)-(2-methylphenyl)[5-(propan-2-yl)pyridin-2-yl]methyl]pyrrolidine-2-carboxamide]
2.51 µM	CC(C)c1ccc([C@@H](NC(=O)[C@@H]2C[C@@H](F)CN2C(=O)C(=O)Nc2cccnc2)c2ccccc2)cc1 [Compound 708, (2S,4R)-4-fluoro-N-[(S)-phenyl[4-(propan-2-yl)phenyl]methyl]-1-{[(pyridin-3-yl)carbamoyl]carbonyl} pyrrolidine-2-carboxamide]
